The Kinase Knowledgebase extract (Sharma et al. 2016)
pIC50: −log10 of the molar value.

Target: MAPK14 (human) (UniProt Q16539)
Assay: Inhibition of MAPK14 Kinase Activity

MAPK14 (human), sequence (Q16539 whole entry, looked up): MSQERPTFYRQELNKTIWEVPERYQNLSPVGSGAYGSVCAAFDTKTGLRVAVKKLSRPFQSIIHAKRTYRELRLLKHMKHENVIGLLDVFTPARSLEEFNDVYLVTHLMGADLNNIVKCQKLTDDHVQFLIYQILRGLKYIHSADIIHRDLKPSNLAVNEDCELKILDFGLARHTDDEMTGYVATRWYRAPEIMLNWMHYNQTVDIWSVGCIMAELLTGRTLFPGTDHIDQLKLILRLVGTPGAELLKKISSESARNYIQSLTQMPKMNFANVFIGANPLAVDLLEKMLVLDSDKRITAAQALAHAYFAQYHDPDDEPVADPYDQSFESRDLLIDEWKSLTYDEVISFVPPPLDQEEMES

pIC50, ≥ 5.30:
CC(C)Cn1c(N)nc2ccc(-c3cn(-c4ccccc4F)nc3-c3ccccc3)cc21
Nc1nc2ccc(-c3[nH]c(-c4c(F)cccc4F)nc3-c3ccccc3)cc2n1Cc1cccc(F)c1
CC(C)Cn1c(N)nc2ccc(-c3nc(-c4c(Cl)cccc4Cl)[nH]c3-c3ccccc3)cc21
CC(C)Cn1c(N)nc2ccc(-c3c(-c4ccccc4)nc(-c4ccc(Cl)cc4)n3C)cc21
CC(C)Cn1c(N)nc2ccc(-c3oc(C(C)(C)C)nc3-c3ccc(F)cc3F)cc21
CC(C)Cn1c(N)nc2ccc(-c3cn(C(C)(C)C)nc3-c3ccccc3)cc21
Cc1nc2ccc(-c3nc(-c4c(F)cccc4F)[nH]c3-c3ccccc3)cc2n1CC(C)C
CC(C)Cn1c(N)nc2ccc(-c3[nH]c(C(C)C)nc3-c3ccccc3)cc21
CC(C)Cn1c(N)nc2ccc(-c3[nH]c(-c4c(F)cccc4F)nc3-c3ccccc3)cc21
CC(C)Cn1c(N)nc2ccc(-c3[nH]c(C4CC4)nc3-c3ccc(F)cc3F)cc21
CC(C)Cn1c(N)nc2ccc(-c3nc(-c4c(C(F)(F)F)cccc4C(F)(F)F)[nH]c3-c3ccccc3)cc21
CC(C)Cn1c(N)nc2ccc(-c3[nH]c(C(C)(C)C)nc3-c3ccccc3)cc21
CC(C)(C)Cn1c(N)nc2ccc(-c3[nH]c(C4CC4)nc3-c3ccccc3)cc21
c1ccc(-c2nc(-c3ccc(OCCN4CCCCC4)cc3)[nH]c2-c2ccc3ncn(CC4CC4)c3c2)cc1
CC(C)n1c(N)nc2ccc(-c3[nH]c(-c4c(F)cccc4F)nc3-c3ccccc3)cc21
CC(C)Cn1c(N)nc2ccc(-c3c(-c4ccc(F)cc4)nc4n3CCC4)cc21
CC(C)Cn1c(N)nc2ccc(-c3c(-c4ccccc4)nc4ccccn34)cc21
Cc1ccsc1-c1nc(-c2ccc3nc(N)n(CC(C)C)c3c2)c(-c2ccccc2)[nH]1
CC(C)Cn1c(N)nc2ccc(-c3[nH]c(-c4c(Cl)cccc4Cl)nc3-c3ccc(F)cc3F)cc21
C[C@@H](n1c(N)nc2ccc(-c3[nH]c(-c4c(F)cccc4F)nc3-c3ccccc3)cc21)C(C)(C)C
CC(C)Cn1c(N)nc2ccc(-c3n[nH]nc3-c3ccc(F)cc3F)cc21
CC(n1c(N)nc2ccc(-c3[nH]c(-c4c(F)cccc4F)nc3-c3ccccc3)cc21)C(C)(C)C (configuration not stated)
CCOCN1=NC(=C(N1)c2ccc3nc(N)n(CC(C)C)c3c2)c4ccccc4
CC(C)Cn1cnc2ccc(-c3n[nH]nc3-c3ccccc3)cc21
CC(C)Cn1c(N)nc2ccc(-c3nc(-c4c(F)cccc4Cl)[nH]c3-c3ccc(F)cc3)cc21
Fc1cccc(F)c1-c1nc(-c2ccccc2)c(-c2ccc3nc[nH]c3c2)[nH]1
CC(C)(C)c1nc(-c2ccc3nc(N)n(CC4CC4)c3c2)c(-c2ccc(F)cc2F)[nH]1
Nc1nc2ccc(-c3nc(-c4c(F)cccc4C(F)(F)F)[nH]c3-c3ccccc3)cc2n1CC1CC1
CC(C)Cn1c(N)nc2ccc(-c3cn(C)nc3-c3ccccc3)cc21
CC(C)Cn1c(N)nc2ccc(-n3ccnc3-c3ccccc3)cc21
CC(C)C(C)n1c(N)nc2ccc(-c3[nH]c(-c4c(F)cccc4F)nc3-c3ccccc3)cc21 (configuration not stated)
CC(C)Cn1c(N)nc2ccc(-c3[nH]c(-c4ccc(Cl)cc4)nc3-c3ccccc3)cc21
CC(C)Cn1c(N)nc2ccc(-c3cn(C(C)(C)C)nc3-c3ccc(F)cc3)cc21
CCCCn1cnc2ccc(-c3[nH]c(-c4c(F)cccc4F)nc3-c3ccccc3)cc21
Cc1nc(-c2ccc(F)cc2F)c(-c2ccc3ncn(CC(C)C)c3c2)[nH]1
Nc1nc2ccc(-c3nc(-c4c(F)cccc4F)[nH]c3-c3ccc(F)cc3F)cc2n1CC1CC1
CC(C)Cn1c(N)nc2ccc(-c3[nH]c(-c4c(F)cc(OCCN5CCCC5)cc4F)nc3-c3ccccc3)cc21
CC(C)Cn1c(N)nc2ccc(-c3c(-c4ccc(F)cc4)ncn3C)cc21
CC(C)Cn1c(N)nc2ccc(-c3oc(C(C)(C)C)nc3-c3ccc(F)cc3)cc21
C[C@@H](n1c(N)nc2ccc(-c3[nH]c(-c4c(F)cccc4Cl)nc3-c3ccccc3)cc21)C(C)(C)C
CCOCn1nc(-c2ccccc2)c(-c2ccc3nc(N)n(CC(C)C)c3c2)n1
CC(C)n1c(N)nc2ccc(-c3[nH]c(-c4ccccc4)nc3-c3ccccc3)cc21
CC(C)Cn1c(N)nc2ccc(-c3n[nH]nc3-c3ccc(F)cc3)cc21
Cc1nc2ccc(-c3cn[nH]c3-c3ccc(F)cc3)cc2n1CC(C)C
CC(C)Cn1c(N)nc2cc(-c3[nH]c(-c4c(F)cccc4Cl)nc3-c3ccccc3)ccc21
CCC(CC)n1c(N)nc2ccc(-c3[nH]c(-c4c(F)cccc4F)nc3-c3ccccc3)cc21
CC(C)(C)Cn1c(N)nc2ccc(-c3[nH]c(-c4c(F)cccc4Cl)nc3-c3ccccc3)cc21
Cc1nc2ccc(-c3c(-c4ccccc4)ncn3C3CCCCC3)cc2n1CC(C)C
CC(C)n1c(N)nc2ccc(-c3n[nH]nc3-c3ccccc3)cc21
CC(C)(C)Cn1c(N)nc2ccc(-c3[nH]c(-c4c(F)cccc4C(F)(F)F)nc3-c3ccccc3)cc21
CC(C)Cn1c(N)nc2ccc(-c3nc(-c4c(Cl)cccc4Cl)[nH]c3-c3ccc(F)cc3)cc21
CC(C)Cn1c(N)nc2ccc(-c3c(-c4ccccc4)ncn3C3CCCCC3)cc21
Nc1nc2ccc(-c3[nH]c(-c4c(F)cccc4F)nc3-c3ccccc3)cc2n1-c1ccccc1
CCCn1cnc2ccc(-c3[nH]c(-c4c(F)cccc4F)nc3-c3ccccc3)cc21
C[C@H](n1c(N)nc2ccc(-c3[nH]c(C(C)(C)C)nc3-c3ccccc3)cc21)C(C)(C)C
CC(C)Cn1c(N)nc2ccc(-c3cn(C(C)C)nc3-c3ccc(F)cc3)cc21
CC(C)Cn1c(N)nc2ccc(-c3[nH]c(-c4ccccc4C(F)(F)F)nc3-c3ccccc3)cc21
Nc1nc2ccc(-c3nc(-c4ccc(F)cc4F)[nH]c3-c3c(F)cccc3C(F)(F)F)cc2n1CC1CC1
CC(C)Cn1c(N)nc2ccc(-c3n[nH]nc3-c3ccccc3)cc21
Cc1nc(-c2ccc(F)cc2F)c(-c2ccc3nc(N)n(CC(C)C)c3c2)[nH]1
Nc1nc2ccc(-c3nc(-c4c(Cl)cccc4Cl)[nH]c3-c3ccc(F)cc3F)cc2n1CC1CC1
CC(C)(C)Cn1c(N)nc2ccc(-c3nc(-c4c(Cl)cccc4Cl)[nH]c3-c3ccc(F)cc3F)cc21
CC(C)Cn1c(N)nc2ccc(-c3c(-c4ccccc4)nc(C4CCCCC4)n3C)cc21
Nc1nc2ccc(-c3nc(-c4c(F)cccc4Cl)[nH]c3-c3ccccc3)cc2n1CC1CC1
Nc1nc2ccc(-c3nc(-c4c(F)cccc4Cl)[nH]c3-c3ccc(F)cc3F)cc2n1CC1CC1
C[C@H](n1c(N)nc2ccc(-c3[nH]c(-c4c(F)cccc4F)nc3-c3ccccc3)cc21)C(C)(C)C
CC(C)Cn1c(N)nc2ccc(-c3[nH]c(C4CC4)nc3-c3ccccc3)cc21
